In BigSolDB 2.1:

O=Cc1cc(Br)c(O)c(Br)c1
solubility (mole fraction)
Details | 278.15 K | 283.15 K | 288.15 K | 293.15 K | 298.15 K | 303.15 K | 308.15 K | 313.15 K | 318.15 K | 323.15 K
in 1,4-dioxane | – | – | 0.0128 | 0.0143 | 0.0161 | 0.0183 | 0.0208 | 0.0236 | 0.0266 | 0.03
in DMF | 0.00805 | 0.00912 | 0.0104 | 0.012 | 0.0137 | 0.0157 | 0.0178 | 0.0201 | 0.0225 | 0.0251
in DMSO | – | – | – | 0.00895 | 0.0101 | 0.0115 | 0.0132 | 0.0152 | 0.0174 | 0.0203
in acetonitrile | 0.002 | 0.00233 | 0.00277 | 0.00328 | 0.00383 | 0.00452 | 0.00531 | 0.00621 | 0.00734 | 0.0086
in cyclohexane | – | 0.000245 | 0.000317 | 0.000408 | 0.000513 | 0.000637 | 0.000791 | 0.000965 | 0.00116 | 0.00139
in ethanol | 0.00281 | 0.00314 | 0.00358 | 0.00413 | 0.00477 | 0.00555 | 0.00646 | 0.00742 | 0.00851 | 0.00974
in ethyl acetate | 0.0055 | 0.00634 | 0.00729 | 0.00845 | 0.0098 | 0.0114 | 0.0131 | 0.015 | 0.0171 | 0.0194
in ethylene glycol | 0.00234 | 0.00274 | 0.00327 | 0.00397 | 0.00476 | 0.00571 | 0.00675 | 0.00796 | 0.00923 | 0.0107
in isobutanol | 0.00368 | 0.00422 | 0.0049 | 0.00569 | 0.00659 | 0.00762 | 0.00878 | 0.01 | 0.0115 | 0.0132
in isopropanol | 0.003 | 0.00343 | 0.00399 | 0.00467 | 0.00542 | 0.00629 | 0.00731 | 0.00841 | 0.00966 | 0.011
in methanol | 0.00195 | 0.0022 | 0.00252 | 0.00294 | 0.00341 | 0.00395 | 0.00457 | 0.00526 | 0.00604 | 0.00689
in n-butanol | 0.00412 | 0.00466 | 0.00539 | 0.00624 | 0.00726 | 0.00846 | 0.0098 | 0.0112 | 0.0128 | 0.0147
in n-octanol | 0.00788 | 0.00908 | 0.0105 | 0.0121 | 0.0139 | 0.016 | 0.0184 | 0.021 | 0.024 | 0.0275
in n-pentanol | 0.00662 | 0.00744 | 0.00859 | 0.0101 | 0.0116 | 0.0135 | 0.0155 | 0.0176 | 0.02 | 0.0226
in n-propanol | 0.00339 | 0.00379 | 0.00434 | 0.00499 | 0.00579 | 0.0067 | 0.00779 | 0.00897 | 0.0103 | 0.0118
in water | 4.91e-05 | 6.34e-05 | 8.16e-05 | 0.000103 | 0.000131 | 0.000167 | 0.000213 | 0.000267 | 0.000332 | 0.000406
